What all share (test): NCI-60 cell line screen, 48 h
The test system of experiment [1] is A549 NSCLC.
Experiment [2] concerns CAKI-1 renal.
Experiment [3] relates to CCRF-CEM leukemia.
The subject of experiment [4] is EKVX NSCLC.
The test system of experiment [5] is HCC-2998 colon.
The test system of experiment [6] is HCT-15 colon.
Experiment [7] relates to HL-60(TB) leukemia.
Experiment [8] deals with IGROV1 ovarian.
The subject of experiment [9] is MDA-MB-231 breast.
For experiment [10], the system named is MOLT-4 leukemia.
For experiment [11], the system named is NCI/ADR-RES ovarian.
Experiment [12] concerns PC-3 prostate.
Experiment [13] concerns SF-268 CNS.
Experiment [14] relates to SK-MEL-5 melanoma.
Experiment [15] relates to SN12C renal.
Experiment [16] relates to U251 CNS.
In experiment [17] the test system is UACC-257 melanoma.
The subject of experiment [18] is UACC-62 melanoma.
Experiment [19] has as its system HOP-92 NSCLC.

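Five compound concentrations were applied to cells in 96-well plates for 48 hours; endpoints were derived by simple linear interpolation of the resulting dose-response curve. TGI denotes the concentration required for complete inhibition of growth.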

Consider `CO/N=C(/C(=O)N(C(=O)/C(=N/OC)c1csc(NC(c2ccccc2)(c2ccccc2)c2ccccc2)n1)n1cnn(CC(=O)OC(C)(C)C)c1=O)c1csc(NC(c2ccccc2)(c2ccccc2)c2ccccc2)n1`, for which the TGI in [1], in experiment [2], in [3], in experiment [4], in [5] and in experiment [6] was above 10 µM each time. Also, the TGI is above 10 µM in [7]; above 10 µM in [8]; above 10 µM in experiment [9]; above 10 µM in experiment [10]; above 10 µM in experiment [11]; 3.44 µM in experiment [12]. Besides, the TGI in experiment [13], in [14], in [15], in experiment [16], in [17] and in experiment [18] was above 10 µM throughout.
Turning to `C1=Nc2sc3c(c2C2=NCCN12)CCCC3`, the TGI worked out at 31.1 µM in experiment [2]; 32 µM in experiment [4]; 24.3 µM in [5]; 30.4 µM in experiment [6]; 36.5 µM in experiment [7]; 30.8 µM in experiment [8]. In addition, the TGI turned out to be 30.3 µM in experiment [9]; 36.4 µM in experiment [10]; 34.6 µM in experiment [11]; 30.7 µM in [12]; 52.1 µM in [13]; 34.3 µM in experiment [14]. The TGI was determined as 41.7 µM in experiment [16], 30 µM in [17] and 29 µM in experiment [18].
Consider `CC(=O)C1=C(C)Cn2c(=O)c3ccccc3c(=O)n2C1`, for which the TGI in experiment [1], in experiment [2], in experiment [3], in experiment [4], in [5] and in [6] was above 100 µM in each case. Further, the TGI in experiment [7], in experiment [19], in [8], in experiment [10], in experiment [13] and in [14] was above 100 µM in each case. The TGI in [15], in experiment [16] and in [17] was above 100 µM each time.
As for `O=C1c2ccccc2-c2c1c(-c1ccc([N+](=O)[O-])cc1)nc1ccc3ccccc3c21`, the TGI in experiment [1], in [2], in [3], in experiment [4], in experiment [5] and in experiment [6] was above 100 µM in each case. For the same compound, the TGI in experiment [9], in [10], in experiment [11], in [12], in experiment [13] and in experiment [15] was above 100 µM in each case. The TGI in [16], in [17] and in experiment [18] was above 100 µM in each case.
As to `Cc1nc2ccccc2c(=O)n1NC(=O)c1ccc([N+](=O)[O-])cc1`, the TGI in experiment [1], in [3], in experiment [4], in [5], in experiment [7] and in experiment [19] was above 100 µM each time. Moreover, the TGI in experiment [8], in [9], in experiment [10], in experiment [12], in experiment [13] and in [14] was above 100 µM throughout. Also, the TGI in experiment [15], in [16], in [17] and in [18] was above 100 µM each time.
In the case of `COC(=O)[C@H]1C[C@H]1NC(=O)C(CC(=O)OCc1ccccc1)NC(=O)OCc1ccccc1` (stereo partly drawn), the TGI was above 100 µM in experiment [1]; above 100 µM in experiment [3]; above 100 µM in experiment [4]; above 100 µM in experiment [5]; above 100 µM in experiment [6]; 39.6 µM in [7]. Further, the TGI in [8] was above 100 µM; in [9], above 100 µM; in [10], above 100 µM; in experiment [11], 91.5 µM; in experiment [12], above 100 µM; in [13] it was above 100 µM. For the same compound, the TGI in experiment [14] was 55.9 µM; in experiment [15], above 100 µM; in experiment [16] it was above 100 µM; in experiment [17], above 100 µM.
`CC(=O)OC(C)c1cc2c(s1)C(=O)c1scc(C(C)OC(C)=O)c1C2=O` (stereo not drawn): the TGI was 4.06 µM in [1]; 5.04 µM in [2]; 2.2 µM in experiment [4]; 1.23 µM in experiment [5]; 0.381 µM in experiment [6]; above 100 µM in [7]. Moreover, the TGI came to 4.58 µM in experiment [19]; 2.04 µM in experiment [8]; 0.802 µM in experiment [11]; 0.504 µM in [13]; 0.208 µM in experiment [14]; 1.66 µM in experiment [16]. Besides, the TGI in [17] worked out at 0.463 µM; in experiment [18], 0.418 µM.
As to `COCc1cc2c(cc1/C(=C/[N+](=O)[O-])CS(=O)(=O)c1ccccc1)OCO2`, the TGI in experiment [1], in experiment [2], in [3], in experiment [4], in experiment [5] and in experiment [6] was above 100 µM throughout. Further, the TGI in [7], in experiment [19], in experiment [8], in [10], in experiment [11] and in experiment [13] was above 100 µM each time. The TGI in experiment [14], in experiment [15], in experiment [16], in experiment [17] and in [18] was above 100 µM each time.
Regarding `CCCCCC[C@H]1CC(=O)C2CCCC[C@@]23CC[C@H](CCl)N13` (stereo partly drawn) (tested in a mixture with another compound), the TGI in [1] is above 100 µM; in experiment [2], above 100 µM; in experiment [3], 90.5 µM; in experiment [4] it was above 100 µM; in experiment [5], above 100 µM; in experiment [6] it was above 100 µM. Also, the TGI in experiment [7] was 46.5 µM; in experiment [19] it was 79.6 µM; in experiment [8], above 100 µM; in experiment [9] it was above 100 µM; in [12] it was 90.6 µM; in experiment [13] it was above 100 µM. In addition, the TGI in [14] was 50.7 µM; in experiment [15], above 100 µM; in experiment [16], above 100 µM; in experiment [17], above 100 µM; in experiment [18], above 100 µM.

The values above are taken from PubChem BioAssay (NCI).
